Test results as given in paper PMC7953584, “An Experimental Study on [^125I]I-pHLIP (Var7) for SPECT/CT Imaging of an MDA-MB-231 Triple-Negative Breast Cancer Mouse Model by Targeting the Tumor Microenvironment” (Molecular Imaging, 2021).
Residues, ends and D or L forms follow the SMILES beside them.

Experiments:
[1] = In vitro stability in mouse serum at 37°C (radiochemical purity); type: in vitro ADME; details: 50 μL probe + 100 μL serum, paper chromatography, mean ± SD
Procedure: The purity of [^125I]I-pHLIP (Var7) was determined by paper chromatography. Normal saline was used as the developing agent, and Xinhua Grade 1 chromatography paper was used as the stationary phase. An appropriate amount of [^125I]I-pHLIP (Var7) eluent was aspirated by a capillary pipette and spotted at the origin of the chromatographic filter paper. After drying, the paper was placed vertically into a test tube containing the developing agent; the unfolded chromatographic filter paper was removed, air dried, and cut at intervals of 1 cm. The radioactivity count was measured segment by segment to calculate the radiochemical purity.
The purified [^125I]I-pHLIP (Var7) was placed at 4°C, at room temperature (25°C) in PBS buffer, and at 37°C in mouse serum. The radiochemical purity at different time points was measured, and the stability was determined. • Two hundred microliters of purified [^125I]I-pHLIP (Var7) solution was placed at 4°C and at room temperature in PBS buffer. Radiochemical purity was determined immediately after purification and at 1, 2, 4, 8, and 24 h after purification • Fifty microliters of purified [^125I]I-pHLIP (Var7) solution was mixed with 100 μL of mouse serum and placed in a 37°C water bath. Radiochemical purity was determined immediately after mixing and at 1, 2, 4, 8, and 24 h after mixing

MDA-MB-231 cells = assay: Cell binding fraction (cellular uptake test); type: cell-based, human; details: for binding fraction B/(B + F) × 100%: 3.7 kBq per well, γ counter, mean ± SD
Procedure: The human breast cancer cell line MDA-MB-231 was purchased from Shanghai Institute of Biochemistry and Cell Biology, Chinese Academy of Sciences and cultured in L-15 medium containing 10% fetal bovine serum at 37°C without CO2.
• Cell Plating. After the MDA-MB-231 cells were grown to greater than 90% confluence, the cell concentration was adjusted to approximately 1.0 × 10^5 cells/mL, 1 mL of the cell suspension was added to each well of a 12-well plate, and cells were cultured overnight at 37°C in a cell incubator. • Drug Administration. At the logarithmic growth phase, the cells were treated with drugs on the day after attachment; 3.7 kBq of [^125I]I-pHLIP (Var7) (20 μL volume) was added to each well. The pH inside the wells was adjusted to 7.4 and 6.0, yielding two groups of cells according to the pH value. • After 10 min, 40 min, 1 h, and 2 h of culture without CO2, the supernatant was aspirated into a tube and washed with PBS of the corresponding pH (pH 7.4 and 6.0) twice. The wash solution was also added to the supernatant tube. The cells were completely digested with trypsin, after which the cell suspension was aspirated into a tube and washed twice with PBS; the wash solution was also added to the tube. The radioactive counts of the cell tube (B) and supernatant tube (F) were measured by a γ counter. The cell binding fraction of the marker was calculated as B/(B + F) × 100%

probe stability in serum (radiochemical purity) ([1]; 1 h): 97.8 ± 1.9%
probe stability in serum (radiochemical purity) ([1]; 2 h): 96.8 ± 1.0%
probe stability in serum (radiochemical purity) ([1]; 4 h): 94.5 ± 1.1%
probe stability in serum (radiochemical purity) ([1]; 8 h): 91.3 ± 2.6%
SMILES: CC(C)C[C@H](NC(=O)[C@H](CCC(=O)O)NC(=O)[C@H](CC(C)C)NC(=O)[C@H](CC(C)C)NC(=O)[C@H](CC(C)C)NC(=O)[C@@H](NC(=O)[C@H](CCC(=O)O)NC(=O)[C@@H](NC(=O)[C@@H]1CCCN1C(=O)[C@H](Cc1ccccc1)NC(=O)[C@H](CC(C)C)NC(=O)[C@H](Cc1c[nH]c2ccccc12)NC(=O)[C@H](CCC(=O)O)NC(=O)[C@H](CC(C)C)NC(=O)[C@H](Cc1ccc(O)c(I)c1)NC(=O)[C@H](CCCNC(=N)N)NC(=O)[C@H](C)NC(=O)[C@H](Cc1c[nH]c2ccccc12)NC(=O)[C@@H]1CCCN1C(=O)[C@H](CC(N)=O)NC(=O)[C@H](CCC(N)=O)NC(=O)[C@H](CCC(=O)O)NC(=O)[C@H](CCC(=O)O)NC(=O)[C@H](C)N)[C@@H](C)O)[C@@H](C)O)C(N)=O [[^125I]I-pHLIP (Var7)] (HELM PEPTIDE1{A.E.E.Q.N.P.W.A.R.[O=C([C@H](Cc1ccc(O)c(I)c1)N[*:1])[*:2]].L.E.W.L.F.P.T.E.T.L.L.L.E.L.[am]}$$$$V2.0)
binding fraction B/(B + F) × 100% (MDA-MB-231 cells; pH 6.0, 10 min): 1.9 ± 0.1%
binding fraction B/(B + F) × 100% (MDA-MB-231 cells; pH 6.0, 40 min): 3.5 ± 0.1%
binding to MDA-MB-231 cells (in words) (MDA-MB-231 cells; pH 7.4): essentially did not bind
binding fraction B/(B + F) × 100% (MDA-MB-231 cells; pH 7.4, 10 min): 0.9 ± 0.1%
binding fraction B/(B + F) × 100% (MDA-MB-231 cells; pH 7.4, 40 min): 0.8 ± 0.1%
binding fraction B/(B + F) × 100% (MDA-MB-231 cells; pH 7.4, 1 h): 0.8 ± 0.1%
binding fraction B/(B + F) × 100% (MDA-MB-231 cells; pH 7.4, 2 h): 0.6 ± 0.1%
